This is an account of results in patent US11730712B2, “Functionalized long-chain hydrocarbon mono- and di-carboxylic acids and derivatives thereof, and their use for the prevention or treatment of disease” (ESPERVITA THERAPEUTICS, INC., priority 2021, dated 2023).

The test system of one data set is Il-6 mRNA. Description: Il-6 mRNA by RT-qPCR. It counts as cell-based. (In qPCR the cycle at which signal appears reflects the starting amount.)
The test system of data set [1] is bone marrow derived macrophages (BMDMs). Description: LPS-induced glycolysis and inflammation in bone marrow derived macrophages. The following applies: 50 μM compound, 4 hours. It counts as cell-based, mouse. The method, then:
Macrophage were isolated as follows: femurs and tibia were collected from mice, cleaned of any soft tissues and the ends were cut off from each bone. The tibia and femur were then transferred into 1.5 mL Eppendorf tubes and the marrow was extracted via centrifugation (1900 g×5 min), resuspended in DMEM and strained through a 40 μm strainer into a 50 ml falcon tube. The strainer was rinsed with an additional 40 mL of DMEM, the cell suspension was transferred to a T175 flask, an additional 60 mL of DMEM was added and the cells were cultured at 37° C. for 4 hours. Differentiation was initiated by adding 20 mL of L929 fibroblast conditioned media and 12 mL was plated on 100 mm dishes. The cells were then left for 7 days to differentiate into macrophages. The media was then aspirated, cells were scraped in 3 mL of DMEM, then pooled and diluted at a ratio of 1:2 with DMEM. The cell suspension was plated in 12-well plates and cells were allowed to adhere overnight. […] Changes in gene expression were calculated using 2-delta cT method. Macrophage glycolytic rates were assessed using a Seahorse Bioanalyzer (XFe96, Agilent Scientific Instruments). […] The following day cells were serum-starved for 2 hours then treated with LPS (100 ng/mL) and Compound I-1 (50 μM) and glycolytic rate was analyzed (Agilent Seahorse XFp Cell Energy Phenotype Test Kit, Cat #103275-100).

A short description of data set [2]: Single and repeat dose plasma and tissue pharmacokinetics in male C57BL/6 mice. It counts as in vivo, mouse. From the text: Materials and methods. The study involved two arms; a single dose pharmacokinetic study and a 4-day repeated-dose pharmacokinetic study. For each arm, 56 inbred male C57BL/6 mice, aged at 6-7 week, were included. All animals were purchased from Charles River Lab (CRL, MA). Upon their arrival, they were kept in special-pathogen-free environment all the time. Briefly, they were housed in group on corncob bedding (ScottPharma, MA) in Innovive® caging system (Innovive, Calif.) on a 12-hour light-dark cycle (0700-1900) at 68-74° F., and 30-70% humidity. They were allowed continually to access water and regular rodent Purina 5001 diet (ScottPharma, MA) ad libitum and to acclimate in the facility for 5 days. Animal handling and procedures were conducted under the protocols and/or guidelines approved by the Institutional Animal Care and Use Committee (IACUC) of […] Biosciences, Inc. […] Also, 2× drug vehicle (3% CMC+0.4% Tween-20) was prepared and stored at 4° C. for a week. On the day of injection, 1 ml frozen 2× aqueous stock solution (20 mg/ml drug solution) aliquot is thawed and mix with another 1 ml 2× drug vehicle (3% Carboxymethyl cellulose+0.4% Tween 20) to prepare 10 mg/ml drug solution. A 25 g mouse would receive 250 μl of 10 mg/ml solution for a dose of 100 mg/kg. Lower concentrations can be achieved by further diluting the 10 mg/ml in 1× vehicle solution with 1× vehicle prepared with milliQ water. On each dosing day, both compound stocks and 2× vehicle were warmed to room temperature and was mixed at 1:1 ratio, given to a concentration of 10 mg/mL. Then 1: 5-fold dilutions were obtained with 1× vehicle to 2 mg/mL. Dosing volume at 10 mL/kg (final dosage: 20 mg/kg) in the morning. […] Study Design. In each group 4 male 6-7-week-old C57BL/6 mice were used. Doses were administered once daily via oral gavage for either a day (single dose arm, QD×1) or 4 consecutive days (repeated dose arm, QD×4) (FIG. 26). Blood, half of brain hemisphere, and one lobe of liver samples were collected from all animals of Day 1 (QD×1 arm) at pre-dose and 0.25, 2, 4, 8, 24 and 36 hours post dose, or Day 4 (QD×4 arm) at pre-dose and 0.25, 2, 4, 8, 24 and 48 hours post dose. Blood samples were collected by cardiac puncture. The blood samples were maintained in wet ice first and centrifuged to obtain plasma (2000×g, 4° C., 5 min). All three samples from each mouse were analyzed for either Compound I-1 or Compound I-32 contents by Integrated Analytical Solutions (Berkeley, Calif.) and the results were used for the generation of the pharmacokinetic graphs. Sample collection, storage, bioanalysis and statistical analysis. All plasma and tissue samples were analyzed by discovery grade bioanalytical method developed for estimation of each test compound in plasma and tissue samples using LC-MS/MS systems. Plasma samples were prepared as follows. Three volumes of acetonitrile containing internal standard was added to one volume of plasma to precipitate proteins. Samples were centrifuged (3000×g for 10 min) and supernatant removed for analysis by LC-MS/MS. Calibration standards and quality controls were made by preparation of a 1 mg/mL stock solution in MeOH and subsequently a series of working solutions in MeOH:water (1/1, v/v) which were spiked into blank plasma to yield a series of calibration standard samples in the range of 1.0 ng/mL to 10 μg/mL. All incurred PK/PD plasma samples were treated identically to the calibration standards and quality control samples. LC-MS/MS analysis was performed utilizing multiple reaction monitoring for detection of characteristic ions for each drug candidate, additional related analytes and internal standard. Tissue samples were prepared as follows, three volumes of PBS buffer (pH 7.4) were added to one volume of each tissue sample which was then homogenized to obtain each tissue homogenate sample. […]

In data set [3] the test system is bone marrow derived macrophages (BMDMs). The data set can be described thus: LPS-induced glycolysis in bone marrow derived macrophages (Seahorse). It counts as cell-based. The conditions noted are these: BMDMs serum-starved 2 hours, LPS (10 ng/mL)+I-1 for 4 hours; Seahorse bioanalyzer. The method, then: Differentiated bone marrow derived macrophages were serum-starved for 2 hours then treated with vehicle (Control), LPS (10 ng/mL) or LPS+ACLYi (I-1) for 4 hours. Glycolytic rate was assessed using Seahorse bioanalyzer.

Setting [4] is: male, C57BL/6, mouse brain, 20 mg/kg/day PO, repeat dose QD × 4.
The mark [5] stands for this setting: male, C57BL/6, mouse liver, 20 mg/kg PO, single dose QD × 1.
Where [6] appears, read: male, C57BL/6, mouse liver, 20 mg/kg/day PO, repeat dose QD × 4.
[7] abbreviates: male, C57BL/6, mouse plasma, 20 mg/kg PO, single dose QD × 1.
The mark [8] stands for this setting: male, C57BL/6, mouse plasma, 20 mg/kg/day PO, repeat dose QD × 4.
Where [9] appears, read: mouse brain, 20 mg/kg PO, single dose QD × 1.
The mark [10] stands for this setting: mouse brain, 20 mg/kg/day PO, repeat dose QD × 4.
Where [11] appears, read: mouse liver, 20 mg/kg PO, single dose QD × 1.
[12] abbreviates: mouse liver, 20 mg/kg/day PO, repeat dose QD × 4.

On to `CC(C)(CCCCc1ccc(CCCCC(C)(C)C(=O)O)cc1)C(=O)O` [Compound I-1, 6-[4-(5-carboxy-5-methylhexyl)-phenyl]-2,2-dimethylhexanoic acid], for which the “marker of inflammation, Il-6 mRNA” value in the data set on Il-6 mRNA was “suppression”. For the same compound, the “LPS-induced glycolysis (Seahorse) and inflammation (Il-6, Il-1b mRNA)” value in data set [1] was “suppression of LPS-induced glycolysis and inflammation”. Also, the concentration in data set [2] (setting [4]) peaked (Cmax) at 169 ng/g. Moreover, the half-life in data set [2] (setting [5]) was 9.6 h; in data set [2] (setting [6]) it was 20.4 h; in data set [2] (setting [7]), 15.3 h; in data set [2] (setting [8]), 22 h. The AUC0-t entry in data set [2] (mouse brain, 20 mg/kg PO, QD × 1, value in brackets with * (reanalysis)) is given as “(2,091)* h*ng/g”; in data set [2] (setting [9]), 1,183 h*ng/g; in data set [2] (mouse brain, 20 mg/kg/day PO, QD × 4, value in brackets with * (reanalysis)), “(3,995)* h*ng/g”; in data set [2] (setting [10]), 1,220 h*ng/g; in data set [2] (mouse liver, 20 mg/kg PO, QD × 1, timepoint 0.25 h samples after reanalysis), “(469,726)* h*ng/g”; in data set [2] (setting [11]) it was 425,184 h*ng/g. Moreover, the AUC0-t result is recorded as “(718,455)* h*ng/g” in data set [2] (mouse liver, 20 mg/kg/day PO, QD × 4, timepoint 0.25 h samples after reanalysis) and 687,414 h*ng/g in data set [2] (setting [12]). Further, the “LPS-induced glycolysis (glycolytic rate)” value in data set [3] is reported as “suppression”.
In the case of `CC(C)(CCCCc1cccc(CCCCC(C)(C)C(=O)O)c1)C(=O)O` [Compound I-32, 6-[3-(5-carboxy-5-methylhexyl)-phenyl]-2,2-dimethylhexanoic acid], the half-life in data set [2] (male, C57BL/6, mouse brain, 20 mg/kg PO, single dose QD × 1) is 3 h; in data set [2] (setting [4]) it was 8 h; in data set [2] (setting [5]) it was 13 h; in data set [2] (setting [6]), 16 h; in data set [2] (setting [7]) it was 9 h; in data set [2] (setting [8]), 9.2 h. In addition, the AUC0-t in data set [2] (setting [9]) was 1,527 h*ng/g; in data set [2] (setting [10]), 6,304 h*ng/g; in data set [2] (setting [11]), 405,934 h*ng/g; in data set [2] (setting [12]) it was 1.01e+06 ng·h/g.

As a reminder, the Cmax is the maximum level reached in the sampled fluid or tissue. The half-life is the time in which the quantity being followed falls by half. The low end stands for rapid decline, the high end for slow decline.
